How the values were obtained:
[1] = target: T1, Histone acetyltransferase p300 (Homo sapiens, UniProt Q09472); experiment: Induction of p300 degradation in human RS4-11 cells incubated for 4 hrs by Western blot assay; type: cell-based; details: for DC50: rs4-11
[2] = test system: RS4-11; experiment: Cytotoxicity against human RS4-11 cells assessed as maximum inhibition of cell growth incubated for 4 days by cellTiter-Glo assay relative to control; type: functional; details: time 4 day
[3] = target: T1, Histone acetyltransferase p300; experiment: Induction of p300 degradation in human RS4-11 cells assessed as maximal degradation incubated for 4 hrs by Western blot assay relative to control; type: cell-based
[4] = test system: RS4-11; experiment: Cytotoxicity against human RS4-11 cells assessed as inhibition of cell growth incubated for 4 days by cellTiter-Glo assay; type: functional, cell-based; details: RS4-11, 96 h
[5] = target: T2, CREB-binding protein (Homo sapiens, UniProt Q92793); experiment: Induction of CBP degradation in human RS4-11 cells incubated for 4 hrs by Western blot assay; type: cell-based
Target sequence in this assay (Q92793 whole entry): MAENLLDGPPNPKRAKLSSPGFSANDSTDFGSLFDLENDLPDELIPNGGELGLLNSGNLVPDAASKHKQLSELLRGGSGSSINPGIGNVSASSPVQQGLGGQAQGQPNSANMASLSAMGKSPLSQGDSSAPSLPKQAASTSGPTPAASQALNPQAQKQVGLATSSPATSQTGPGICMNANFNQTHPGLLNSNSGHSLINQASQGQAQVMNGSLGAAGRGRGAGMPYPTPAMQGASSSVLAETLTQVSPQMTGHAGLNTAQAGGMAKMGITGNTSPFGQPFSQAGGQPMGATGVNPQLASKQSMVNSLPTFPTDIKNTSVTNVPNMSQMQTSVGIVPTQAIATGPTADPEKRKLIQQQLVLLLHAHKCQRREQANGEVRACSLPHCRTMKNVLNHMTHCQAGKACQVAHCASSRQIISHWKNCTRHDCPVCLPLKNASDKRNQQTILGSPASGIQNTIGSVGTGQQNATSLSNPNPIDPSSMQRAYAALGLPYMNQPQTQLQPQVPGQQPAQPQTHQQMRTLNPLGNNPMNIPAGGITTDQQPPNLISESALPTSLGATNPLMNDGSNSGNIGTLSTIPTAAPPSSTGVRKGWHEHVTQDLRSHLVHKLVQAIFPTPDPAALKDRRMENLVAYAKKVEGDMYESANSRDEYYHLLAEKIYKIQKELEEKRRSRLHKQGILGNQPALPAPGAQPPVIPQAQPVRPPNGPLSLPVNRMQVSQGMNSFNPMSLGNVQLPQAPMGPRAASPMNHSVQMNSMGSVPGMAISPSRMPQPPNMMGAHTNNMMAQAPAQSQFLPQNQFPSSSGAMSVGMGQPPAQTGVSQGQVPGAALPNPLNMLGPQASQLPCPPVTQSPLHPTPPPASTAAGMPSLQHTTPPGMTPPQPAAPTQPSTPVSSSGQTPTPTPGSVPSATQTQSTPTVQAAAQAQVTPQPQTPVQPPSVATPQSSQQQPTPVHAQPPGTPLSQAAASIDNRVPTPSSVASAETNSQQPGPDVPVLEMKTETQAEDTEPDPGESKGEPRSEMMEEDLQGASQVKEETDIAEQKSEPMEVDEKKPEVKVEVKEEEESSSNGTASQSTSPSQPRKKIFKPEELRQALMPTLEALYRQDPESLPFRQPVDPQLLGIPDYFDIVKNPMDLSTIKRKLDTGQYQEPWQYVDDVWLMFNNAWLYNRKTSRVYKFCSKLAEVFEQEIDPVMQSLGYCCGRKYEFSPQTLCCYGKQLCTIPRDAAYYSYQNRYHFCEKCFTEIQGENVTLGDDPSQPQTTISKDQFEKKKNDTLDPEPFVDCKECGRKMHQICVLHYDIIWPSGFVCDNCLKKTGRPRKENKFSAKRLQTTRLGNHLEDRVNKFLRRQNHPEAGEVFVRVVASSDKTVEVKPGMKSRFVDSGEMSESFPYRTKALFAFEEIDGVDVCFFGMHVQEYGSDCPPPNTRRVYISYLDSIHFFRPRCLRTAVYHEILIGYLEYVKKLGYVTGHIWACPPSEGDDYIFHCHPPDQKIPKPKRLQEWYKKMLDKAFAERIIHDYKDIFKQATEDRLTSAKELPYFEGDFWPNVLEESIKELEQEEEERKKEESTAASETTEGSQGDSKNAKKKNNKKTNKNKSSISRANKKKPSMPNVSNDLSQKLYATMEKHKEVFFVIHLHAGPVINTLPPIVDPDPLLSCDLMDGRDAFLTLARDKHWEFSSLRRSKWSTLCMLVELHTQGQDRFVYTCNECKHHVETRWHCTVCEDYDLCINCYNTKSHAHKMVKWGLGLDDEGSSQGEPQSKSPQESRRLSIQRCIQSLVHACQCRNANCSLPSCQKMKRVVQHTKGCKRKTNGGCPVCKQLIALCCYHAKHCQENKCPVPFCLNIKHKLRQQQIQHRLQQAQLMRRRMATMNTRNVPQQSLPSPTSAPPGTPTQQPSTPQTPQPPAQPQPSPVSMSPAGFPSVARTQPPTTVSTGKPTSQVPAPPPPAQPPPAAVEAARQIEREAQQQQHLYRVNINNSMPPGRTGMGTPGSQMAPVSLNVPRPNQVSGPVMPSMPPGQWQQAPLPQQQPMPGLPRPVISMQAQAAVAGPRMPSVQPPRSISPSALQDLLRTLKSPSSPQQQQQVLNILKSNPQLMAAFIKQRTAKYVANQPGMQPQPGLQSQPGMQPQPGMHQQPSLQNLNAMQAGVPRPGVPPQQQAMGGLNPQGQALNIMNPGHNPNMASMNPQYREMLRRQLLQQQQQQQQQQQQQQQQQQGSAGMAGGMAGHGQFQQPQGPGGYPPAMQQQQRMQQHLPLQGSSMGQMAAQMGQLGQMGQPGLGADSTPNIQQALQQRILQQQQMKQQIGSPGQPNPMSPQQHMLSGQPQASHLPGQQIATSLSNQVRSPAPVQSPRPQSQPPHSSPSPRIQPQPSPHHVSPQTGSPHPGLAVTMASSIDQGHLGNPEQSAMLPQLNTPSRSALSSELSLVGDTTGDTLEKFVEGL

[6] = target: T2, CREB-binding protein; experiment: Induction of CBP degradation in human RS4-11 cells assessed as maximal degradation incubated for 4 hrs by Western blot assay; type: cell-based
Target sequence in this assay (Q92793 2-2442 limits assumed): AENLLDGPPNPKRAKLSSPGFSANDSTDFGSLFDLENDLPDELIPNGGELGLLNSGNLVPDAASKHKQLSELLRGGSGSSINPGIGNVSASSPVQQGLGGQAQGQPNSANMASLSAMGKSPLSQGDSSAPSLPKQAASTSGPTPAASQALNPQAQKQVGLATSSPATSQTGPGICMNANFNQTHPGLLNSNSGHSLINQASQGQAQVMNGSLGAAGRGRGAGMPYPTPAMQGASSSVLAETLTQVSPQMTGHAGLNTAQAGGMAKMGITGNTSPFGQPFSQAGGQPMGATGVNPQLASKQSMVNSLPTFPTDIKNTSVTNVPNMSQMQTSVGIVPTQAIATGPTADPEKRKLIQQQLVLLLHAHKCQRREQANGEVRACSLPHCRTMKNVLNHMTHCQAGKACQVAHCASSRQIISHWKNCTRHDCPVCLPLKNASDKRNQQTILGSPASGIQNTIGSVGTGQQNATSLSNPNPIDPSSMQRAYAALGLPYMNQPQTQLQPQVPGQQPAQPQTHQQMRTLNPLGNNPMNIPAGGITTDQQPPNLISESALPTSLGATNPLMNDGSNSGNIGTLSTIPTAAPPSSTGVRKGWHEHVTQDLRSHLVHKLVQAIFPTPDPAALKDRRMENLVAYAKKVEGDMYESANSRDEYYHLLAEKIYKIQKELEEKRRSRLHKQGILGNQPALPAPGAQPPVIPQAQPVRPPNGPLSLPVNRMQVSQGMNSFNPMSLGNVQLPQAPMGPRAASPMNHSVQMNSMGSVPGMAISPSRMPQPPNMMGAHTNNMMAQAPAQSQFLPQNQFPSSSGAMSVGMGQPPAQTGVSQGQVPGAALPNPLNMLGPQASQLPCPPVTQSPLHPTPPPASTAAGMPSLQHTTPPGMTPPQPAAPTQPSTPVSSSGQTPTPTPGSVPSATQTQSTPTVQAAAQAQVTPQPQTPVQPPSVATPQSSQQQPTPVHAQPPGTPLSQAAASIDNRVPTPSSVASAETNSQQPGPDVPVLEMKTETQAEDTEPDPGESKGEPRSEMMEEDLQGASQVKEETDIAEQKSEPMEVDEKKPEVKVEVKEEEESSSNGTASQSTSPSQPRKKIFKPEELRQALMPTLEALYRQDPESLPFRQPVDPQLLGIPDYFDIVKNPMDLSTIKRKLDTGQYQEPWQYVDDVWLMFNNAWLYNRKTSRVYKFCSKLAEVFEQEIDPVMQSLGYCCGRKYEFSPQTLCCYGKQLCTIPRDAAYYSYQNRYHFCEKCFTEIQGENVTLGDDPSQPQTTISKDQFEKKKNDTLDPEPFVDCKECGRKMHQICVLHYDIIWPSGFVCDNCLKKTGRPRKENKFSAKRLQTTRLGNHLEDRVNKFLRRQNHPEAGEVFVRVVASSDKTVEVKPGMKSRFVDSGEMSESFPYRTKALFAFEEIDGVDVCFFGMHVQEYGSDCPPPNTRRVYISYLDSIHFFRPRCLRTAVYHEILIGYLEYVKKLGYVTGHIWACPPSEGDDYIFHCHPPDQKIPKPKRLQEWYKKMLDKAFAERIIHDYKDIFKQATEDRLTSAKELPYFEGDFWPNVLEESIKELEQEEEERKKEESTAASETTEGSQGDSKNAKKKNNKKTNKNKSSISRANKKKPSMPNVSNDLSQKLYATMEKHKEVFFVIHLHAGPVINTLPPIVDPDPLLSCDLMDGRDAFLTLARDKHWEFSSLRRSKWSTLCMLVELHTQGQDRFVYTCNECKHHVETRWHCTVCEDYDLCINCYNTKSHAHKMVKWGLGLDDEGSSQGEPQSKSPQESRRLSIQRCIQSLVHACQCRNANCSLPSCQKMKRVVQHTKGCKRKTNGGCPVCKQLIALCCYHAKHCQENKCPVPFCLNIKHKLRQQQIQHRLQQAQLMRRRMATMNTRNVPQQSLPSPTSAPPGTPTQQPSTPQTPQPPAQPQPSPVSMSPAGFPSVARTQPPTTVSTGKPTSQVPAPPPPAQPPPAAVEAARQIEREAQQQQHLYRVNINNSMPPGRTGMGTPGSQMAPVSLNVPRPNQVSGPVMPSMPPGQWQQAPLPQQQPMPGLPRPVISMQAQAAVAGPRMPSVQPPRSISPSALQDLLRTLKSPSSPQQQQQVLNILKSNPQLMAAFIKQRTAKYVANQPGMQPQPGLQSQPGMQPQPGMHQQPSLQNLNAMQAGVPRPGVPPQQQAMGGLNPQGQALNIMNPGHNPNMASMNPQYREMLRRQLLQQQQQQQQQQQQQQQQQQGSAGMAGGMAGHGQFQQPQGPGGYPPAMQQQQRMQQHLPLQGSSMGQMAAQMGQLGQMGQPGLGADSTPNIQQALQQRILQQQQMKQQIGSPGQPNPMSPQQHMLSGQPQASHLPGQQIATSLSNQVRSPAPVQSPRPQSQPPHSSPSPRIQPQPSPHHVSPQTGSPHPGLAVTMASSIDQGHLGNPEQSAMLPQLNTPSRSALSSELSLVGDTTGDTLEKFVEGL

EC50 [1] [nM] | Emax [3] [%] | EC50 [5] [nM] | Emax [6] [%] | DC50 [1] [nM] | Structure (SMILES) | Imax [2] [%] | IC50 [4] [nM]
0.6 | 87 | 0.6 | 99 |  | CC(=O)N1CCc2c(c(-c3cccc4cc(-c5ccc(C(=O)NCCCCCCNc6cccc7c6C(=O)N(C6CCC(=O)NC6=O)C7=O)nc5)ncc34)nn2C2CCOCC2)C1 (stereo not given) | 80 | 0.3
 | 10 | 40 | 58 |  | CC(=O)N1CCc2c(c(-c3cccc4cc(-c5ccc(C(=O)N6CCC(C7CCN(c8cccc9c8C(=O)N(C8CCC(=O)NC8=O)C9=O)CC7)CC6)nc5)ncc34)nn2C2CCOCC2)C1 (stereo not given) | 88 | 24
2.3 | 87 | 12 | 99 |  | CC(=O)N1CCc2c(c(-c3cccc4cc(-c5ccc(C(=O)NCCCCCCCNc6cccc7c6C(=O)N(C6CCC(=O)NC6=O)C7=O)nc5)ncc34)nn2C2CCOCC2)C1 (stereo not given) | 90 | 1.6
 | 99 | 0.2 | 80 | < 0.1 | CC(=O)N1CCc2c(c(-c3cccc4cc(-c5ccc(C(=O)NCCCCc6cccc7c6CN(C6CCC(=O)NC6=O)C7=O)nc5)ncc34)nn2C2CCOCC2)C1 (stereo not given) | >95 | 0.1
0.3 | 95 | 1 | 92 |  | CC(=O)N1CCc2c(c(-c3cccc4cc(-c5ccc(C(=O)NCCCCCNc6cccc7c6C(=O)N(C6CCC(=O)NC6=O)C7=O)nc5)ncc34)nn2C2CCOCC2)C1 (stereo not given) | >95 | 2.2
0.7 | 90 | 1.2 | 71 |  | CC(=O)N1CCc2c(c(-c3cccc4cc(-c5ccc(C(=O)NCCCNc6cccc7c6C(=O)N(C6CCC(=O)NC6=O)C7=O)nc5)ncc34)nn2C2CCOCC2)C1 (stereo not given) | >95 | 0.1
 | 25 | 1.8 | 86 |  | CC(=O)N1CCc2c(c(-c3cccc4cc(-c5ccc(C(=O)N6CCC(Nc7cccc8c7C(=O)N(C7CCC(=O)NC7=O)C8=O)CC6)nc5)ncc34)nn2C2CCOCC2)C1 (stereo not given) | 70 | 68
1.9 | 99 | 1 | 99 |  | CC(=O)N1CCc2c(c(-c3cccc4cc(-c5ccc(C(=O)NC6CCN(c7ccc8c(c7)C(=O)N(C7CCC(=O)NC7=O)C8=O)CC6)nc5)ncc34)nn2C2CCOCC2)C1 (stereo not given) | 83 | 20
 | 97 | 0.6 | 99 | 1.8 | CC(=O)N1CCc2c(c(-c3cccc4cc(-c5ccc(C(=O)NCCNc6cccc7c6CN(C6CCC(=O)NC6=O)C7=O)nc5)ncc34)nn2C2CCOCC2)C1 (stereo not given) | 85 | 1.3
 | 10 |  | 21 |  | CC(=O)N1CCc2c(c(-c3cccc4cc(-c5ccc(C(=O)N6CCC7(CCC(Nc8cccc9c8C(=O)N(C8CCC(=O)NC8=O)C9=O)CC7)CC6)nc5)ncc34)nn2C2CCOCC2)C1 (stereo not given) | 65 | 70
 | 37 | 1.7 | 66 |  | CC(=O)N1CCc2c(c(-c3cccc4cc(-c5ccc(C(=O)NCCNc6cccc7c6C(=O)N(C6CCC(=O)NC6=O)C7=O)nc5)ncc34)nn2C2CCOCC2)C1 (stereo not given) | 50 | 196
 |  |  |  |  | C[C@H](N(Cc1ccc(F)cc1)C(=O)CN1C(=O)O[C@@]2(CCc3cc(NC(=O)CCCCCCCCCCCNc4ccc5c(c4)C(=O)N(C4CCC(=O)NC4=O)C5=O)ccc32)C1=O)C(F)(F)F (stereo not given in full) | 99 | 91
 |  |  |  |  | CNC(=O)N1CCc2c(c(N3CCCc4cc(-c5cnn(C)c5)c(C(F)F)cc43)nn2C2CCN(C(=O)CCOCCOCCOCCOCCNc3ccc4c(c3)C(=O)N(C3CCC(=O)NC3=O)C4=O)CC2)C1 (stereo not given) | 89 | 4.8
 | 40 | 3.7 | 85 |  | CC(=O)N1CCc2c(c(-c3cccc4cc(-c5ccc(C(=O)N6CCC(C7CN(c8cccc9c8C(=O)N(C8CCC(=O)NC8=O)C9=O)C7)CC6)nc5)ncc34)nn2C2CCOCC2)C1 (stereo not given) | >95 | 2.4

— ChEMBL document CHEMBL5338817, “Discovery of Exceptionally Potent, Selective, and Efficacious PROTAC Degraders of CBP and p300 Proteins” (J Med Chem, 2023)
